Experimental data from publication PMC10530208 (Cell reports, 2023).
Structures can show the parent of a compound that is named as a salt.

Key:
Cp mitosome = assay: MitoTracker staining of indole treated C. parvum; format: cell-based, Cryptosporidium parvum; details: indole 1.76 mM, 7CNI 1 mM, CCCP 10 μM; 2 h or 24 h
C. parvum [1] = assay: Air-liquid interface; format: cell-based, Cryptosporidium parvum; details: for Time after washout to significant recovery in Cp growth / Cp growth recovery after washout: ALI; for Time after washout to significant recovery in Cp growth: treated at EC50 for two days; for EC50 / EC90: Cryptosporidium parvum; for EC50: read-out: Cp EC50 in ALI cultures; for EC90: read-out: Cp EC90 in ALI cultures
HCT-8 cells [2] = assay: Seahorse metabolic assays; format: cell-based, human; details: 18 h; indole 0.5-2 mM, 7CNI 0.25-1 mM
C. parvum [3] = assay: Sliding window treatment with indoles; format: cell-based, Cryptosporidium parvum; details: EC90 concentration
C. parvum [4] = assay: Antibody and EdU labeling of C. parvum life cycle stages; format: cell-based, Cryptosporidium parvum; details: EC90 concentration; for Effect on Cp life cycle progression: first 24 hpi
[5] = system: C. parvum-infected GKO mice; assay: Metabolite treatment of C. parvum-infected GKO mice; format: in vivo, mouse; details: 50 mg/kg oral gavage twice daily for 7 days
HCT-8 cells [6] = assay: Initial metabolite screen: host cell numbers; format: cell-based, human; details: 1 mM
C. parvum [7] = assay: C. parvum growth assay in HCT-8 cells: indole analog screen and dose-response; format: cell-based, Cryptosporidium parvum; details: for Effect on Cp infection in the indole analog screen: 1 mM, HCT-8 cells; for EC50: Cryptosporidium parvum, HCT-8, 24 h, read-out: Cp EC50
C. parvum [8] = assay: C. parvum growth assay with mitochondrial inhibitors; format: cell-based, Cryptosporidium parvum; details: read-out: Cp EC50
C. parvum [9] = assay: Initial screen of metabolites on C. parvum growth in HCT-8 cells; format: cell-based, Cryptosporidium parvum; details: 1 mM or 0.1 mM, 24 hpi
[10] = system: HCT-8 AhR WT cells or AhR KO cells; assay: Seahorse XF Cell Energy Phenotype Test on HCT-8 AhR WT and AhR KO cells; format: cell-based, human; details: 18 h; 0.5, 1 or 2 mM; both HCT-8 WT and AhR KO cells
C. parvum [11] = assay: C. parvum growth assay in HCT-8 AhR WT vs AhR KO cell lines; format: cell-based, Cryptosporidium parvum; details: 1 mM; 24 h
HCT-8 cells [12] = assay: Transcriptomics; format: cell-based, human; details: 880 μM; 4 or 12 h; FDR p < 0.05, absolute fold change > 2
HCT-8 cells [13] = assay: Host nuclei ratio with mitochondrial inhibitors; format: cell-based, human; details: 40 μM and 20 μM

For N#Cc1cccc2cc[nH]c12 [7-cyanoindole], the “MitoTracker staining of Cp mitosomes” value (Cp mitosome) was “significantly decreased MitoTracker staining of Cp mitosomes”, the “Time after washout to significant recovery in Cp growth” value (C. parvum [1]) was 4 days and the EC50 (C. parvum [1]) was 379 µM. For the same molecule, the EC90 (C. parvum [1]) was 688 µM, the “ATP production rate by glycolysis” value (HCT-8 cells [2]) was “remained similar between all treatments” and the “ATP production rate by the mitochondria” value (HCT-8 cells [2]) was “significant reduction in ATP production rate by the mitochondria”. For the same molecule, the “Effect on Cp growth, treatment 0–4 hpi only” value (C. parvum [3]) was “neither indole nor 7CNI inhibited Cp growth”, the “Effect on Cp infection, treatment started 4 hpi (4–24 hpi)” value (C. parvum [3]) was “significantly inhibited Cp infection” and the “Effect on Cp life cycle progression” value (C. parvum [4]) was “delayed progression through sequential life cycle stages”. The Body weight [5] was “weighed significantly more than vehicle- or indole-treated mice 5 and 7 dpi” and the Survival rate [5] was “did not significantly increase survival rate”.
With CCCCC[C@H](O)/C=C/[C@H]1[C@H](O)CC(=O)[C@@H]1C/C=C\CCCC(=O)O [Prostaglandin E2] the “Host toxicity in the initial screen” value (HCT-8 cells [6]) was “significant host toxicity at 1 mM”.
For NC(=O)Cc1c[nH]c2ccccc12 [Indole-3-acetamide], the “Effect on Cp infection in the indole analog screen” value (C. parvum [7]) was “exceptions”.
CC[C@H]1/C=C/C=C/C[C@@H](C)[C@H](O)[C@@](C)(O)C(=O)[C@@H](C)[C@H](O)[C@@H](C)C(=O)[C@@H](C)[C@H](O)[C@@H](C)/C=C/C(=O)O[C@@H]2[C@H](C)[C@H](CC1)O[C@]1(CC[C@H](C)[C@H](C[C@@H](C)O)O1)[C@H]2C [oligomycin] gave an EC50 (C. parvum [8]; Cryptosporidium parvum, HCT-8, 24 h) of 20.6 µM.
For O=C(O)Cc1c[nH]c2ccc(O)cc12 [5-Hydroxyindole-3-acetic acid], the “Effect on Cp growth in the primary metabolite screen” value (C. parvum [9]) was “no effect on Cp”.
In the case of Cc1ncc(CO)c(C=O)c1O [Pyridoxal hydrochloride], the “Effect on Cp growth in the primary metabolite screen” value (C. parvum [9]) is reported as “significantly inhibited Cp growth”, the EC50 (C. parvum [7]) is reported as 213 µM and the “Fold Selectivity (HCT-8 EC50 divided by Cp EC50)” value (C. parvum [7]; host value from nuclei count) is reported as 44.6 fold.
For C[C@H](CCC(=O)O)[C@H]1CC[C@H]2[C@@H]3CC[C@@H]4C[C@H](O)CC[C@]4(C)[C@H]3CC[C@]12C [Lithocholic acid], the “Host toxicity in the initial screen” value (HCT-8 cells [6]) was “significant host toxicity at 1 mM” and the “Effect on Cp growth in the primary metabolite screen” value (C. parvum [9]) was “significantly inhibited Cp growth”.
C[C@H](CCC(=O)O)[C@H]1CC[C@H]2[C@@H]3CC[C@@H]4C[C@H](O)CC[C@]4(C)[C@H]3C[C@H](O)[C@]12C [Deoxycholic acid] was tested, and the “Host toxicity in the initial screen” value (HCT-8 cells [6]) was “significant host toxicity at 1 mM” and the “Effect on Cp growth in the primary metabolite screen” value (C. parvum [9]) was “significantly inhibited Cp growth”.
For O=C(O)C(O)Cc1c[nH]c2ccccc12 (stereo not drawn) [indole-3-lactic acid], the “Effect on Cp infection in the indole analog screen” value (C. parvum [7]) was “exceptions”.
In the case of O=C(O)CCc1c[nH]c2ccccc12 [Indole-3-propionic acid], the “Effect on Cp infection in the indole analog screen” value (C. parvum [7]) is reported as “did inhibit Cp”.
In the case of Oc1cccc2[nH]ccc12 [4-Hydroxyindole], the “Effect on Cp growth in the primary metabolite screen” value (C. parvum [9]) is reported as “significantly inhibited Cp growth” and the EC50 (C. parvum [7]) is reported as 1260 µM.
With C[C@H](CCC(=O)O)[C@H]1CC[C@H]2[C@@H]3CC[C@@H]4C[C@H](O)CC[C@]4(C)[C@H]3C[C@H](O)[C@]12C [Deoxycholate, sodium deoxycholate] the “Host toxicity in the initial screen” value (HCT-8 cells [6]) was “significant host toxicity at 1 mM” and the “Effect on Cp growth in the primary metabolite screen” value (C. parvum [9]) was “significantly inhibited Cp growth”.
In the case of Cc1c[nH]c2ccccc12 [3-methylindole], the “Effect on Cp infection in the indole analog screen” value (C. parvum [7]) is reported as “did inhibit Cp”.
In the case of c1ccc2[nH]ccc2c1 [Indole], the “MitoTracker staining of Cp mitosomes” value (Cp mitosome) is reported as “significantly decreased MitoTracker staining of Cp mitosomes”, the “Cp growth recovery after washout” value (C. parvum [1]; treated at 2 × EC90 for two days) is reported as “no recovery was observed” and the “Time after washout to significant recovery in Cp growth” value (C. parvum [1]) is reported as 2 days. For the same molecule, the “Cp growth recovery after washout” value (C. parvum [1]; treated at EC90 for two days) was “Some growth recovery (though not significant)”, the EC50 (C. parvum [1]) was 577 µM and the EC90 (C. parvum [1]) was 1890 µM. The “Mitochondrial basal and stressed respiratory rate” value [10] was “significantly impaired in a dose-dependent manner”, the “ATP production rate by glycolysis” value (HCT-8 cells [2]) was “remained similar between all treatments” and the “ATP production rate by the mitochondria” value (HCT-8 cells [2]) was “significant reduction in ATP production rate by the mitochondria”. The “Basal and maximal levels of mitochondrial respiration (OCR)” value (HCT-8 cells [2]) was “significantly reduced both basal levels and maximal levels of mitochondrial respiration”, the Spare respiratory capacity (HCT-8 cells [2]) was “diminished” and the “Total ATP production rate” value (HCT-8 cells [2]) was “lower total ATP production rate”. The “Effect on Cp growth, treatment 0–4 hpi only” value (C. parvum [3]) was “neither indole nor 7CNI inhibited Cp growth”, the “Effect on Cp infection, treatment started 4 hpi (4–24 hpi)” value (C. parvum [3]) was “significantly inhibited Cp infection” and the “Effect on Cp infection of pre-treatment of host cells” value (C. parvum [3]; 20 h before infection) was “did not affect subsequent Cp infection”. For the same molecule, the “Morphology of mature merozoites” value (C. parvum [4]; 22 h, 1E12 labeling) was “did not observe any obvious morphological defects in mature merozoites”, the “Effect on Cp life cycle progression” value (C. parvum [4]) was “delayed progression through sequential life cycle stages” and the “Effect on Cp growth in the primary metabolite screen” value (C. parvum [9]) was “significantly inhibited Cp growth”. The “Cp oocysts shed in the feces” value [5] was “no significant effect on Cp infection in vivo”, the Median survival time [5] was 17 dpi and the “Cp sensitivity to inhibition in AhR KO cells” value (C. parvum [11]) was “remained sensitive”. The EC50 (C. parvum [7]) was 411 µM, the Downregulated genes (HCT-8 cells [12]) was 11 genes and the “Genes significantly differentially expressed after treatment” value (HCT-8 cells [12]) was 68 genes. It also gave an Upregulated genes (HCT-8 cells [12]) of 57 genes.
In the case of N#CC(C#N)=NNc1cccc(Cl)c1 [CCCP, carbonyl cyanide m-chlorophenyl hydrazone], the EC50 (C. parvum [8]; HCT-8 cells, 24 h) is reported as 5 µM, the “MitoTracker staining of Cp mitosomes” value (Cp mitosome) is reported as “decreases MitoTracker staining in the Cp mitosome” and the Host toxicity (HCT-8 cells [13]) is reported as “observed host toxicity”.
